Tests used:
Type in all cases: cell-based
[1] = test system: HSV-1 17syn+ (drug sensitive); assay: Multi-step replication, comparison with acyclovir, strain 17syn+; settings: MOI 10^−3, 48 hours, rabbit skin cells
Procedure: (§1) Four groups were included when testing the impact of the ribozyme on replication of drug resistant HSV-1 strains: mock infection and Ad-UL20 Rz treatments were performed as before; an adenovirus expressing GFP was used instead of ψ5; and an acyclovir (ACV) treatment (0.1 μM) was included. The dosage of acyclovir was determined by the threshold dose needed to distinguish drug resistance of HSV-1 (Thi, T. N., C. Deback, I. Malet, P. Bonnafous, Z. Ait-Arkoub, and H. Agut. 2006. Rapid determination of antiviral drug susceptibility of herpes simplex virus types 1 and 2 by real-time PCR. Antiviral Res 69:152-7). Forty-eight hours were allowed for HSV-1 infection to develop before cell lysates were harvested for titration. Five HSV-1 strains were tested: 17syn+ and KOS are drug sensitive strains, and PAAr5, tkLTRZ1, and ACG^r4 are drug resistant isolates.
(§2) UL20-Rz154 inhibits viral replication of HSV-1 drug resistant strains. Ad-UL20 Rz154 was compared with acyclovir treatment in a multi-step infection at an MOI of 10^−3. […] In the case of PAAr5 infection, UL20 ribozyme reduced viral production by 99%; against tkLTRZ1 infection, it reduced virus yield by 76%; and against ACGr4 by 70%. Therefore, knocking down the expression of the UL20 gene led to a significant inhibition of HSV-1 viral replication in viral strains that were resistant to a conventional antiviral drug.

[2] = test system: HSV-1 ACGr4 (drug resistant); assay: Multi-step replication, comparison with acyclovir, strain ACGr4; settings: strain ACGr4, MOI 10^−3, 48 hours, rabbit skin cells
Procedure: as §1, §2

[3] = test system: HSV-1 KOS (drug sensitive); assay: Multi-step replication, comparison with acyclovir, strain KOS; settings: MOI 10^−3, 48 hours, rabbit skin cells
Procedure: as §1, §2

[4] = test system: HSV-1 PAAr5 (drug resistant); assay: Multi-step replication, comparison with acyclovir, strain PAAr5; settings: strain PAAr5, MOI 10^−3, 48 hours, rabbit skin cells
Procedure: as §1, §2

[5] = test system: HSV-1 tkLTRZ1 (drug resistant); assay: Multi-step replication, comparison with acyclovir, strain tkLTRZ1; settings: strain tkLTRZ1, MOI 10^−3, 48 hours, rabbit skin cells
Procedure: as §1, §2

In the case of Nc1nc2c(ncn2COCCO)c(=O)[nH]1 [acyclovir], the “inhibition of HSV-1 viral production” value [1] is reported as 99%, the “reduction of virus yield” value [2] is reported as “no significant difference in HSV yields” and the “inhibition of HSV-1 viral production” value [3] is reported as 80%. For the same compound, the “reduction of viral production” value [4] was “no significant difference in HSV yields” and the “reduction of virus yield” value [5] was “no significant difference in HSV yields”.
